PubChem BioAssay (NCI)
Values joined by “and” are separate entries in the source; they are usually repeats but may differ in a detail not shown here. Identical values can stand only once.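 Grown in 96-well plates, cells were treated for 48 hours with each compound at five concentrations. Insufficient inhibition: endpoint recorded as highest concentration tested. At the GI50, growth is halved. Definition used: TGI = concentration required for complete inhibition of growth.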

What was measured:
Experiment in all cases: NCI tumour cell line growth inhibition, 48 h
[1] = test system: SNB-19 CNS
[2] = test system: NCI-H522 lung
[3] = test system: SF-295 CNS
[4] = test system: OVCAR-8 ovarian
[5] = test system: M14 melanoma
[6] = test system: RXF 393 renal
[7] = test system: SN12C renal
[8] = test system: MOLT-4 leukemia
[9] = test system: SNB-75 CNS

SMILES	TGI [1]	TGI [2] [µM]	TGI [3] [µM]	TGI [4] [µM]	TGI [5] [µM]	TGI [6] [µM]	TGI [7] [µM]	TGI [8] [µM]	TGI [9]	GI50 [1] [µM]	GI50 [2] [µM]	GI50 [3] [µM]	GI50 [4] [µM]	GI50 [6] [µM]	GI50 [7] [µM]	GI50 [9] [µM]	GI50 [5] [µM]	GI50 [8] [µM]
CC1=CCC[C@@]2(C)C(CC[C@@H]2C(C)/C=C/C(C)C)c2ccc(cc2C(=O)O)C[C@@H](O)CC1 (stereo not given in full)	17.5 µM	29.8	21.7	33.3	34	30	30.4	28	27.4 µM									
[O-]/[N+](=C\c1ccccc1)[C@H](COCc1ccccc1)c1ccccc1	> 100 µM	> 100	> 100	> 100		> 100		> 100	> 100 µM									
CC[P+](C)(Cc1ccccc1)c1ccccc1 (stereo not given)	> 100 µM	> 100	> 100	> 100	> 100	> 100	> 100	> 100	> 100 µM									
Nc1nc(CCC(=O)Nc2cccc(C(F)(F)F)c2)cc(-c2cccc3ccccc23)n1	> 100 µM	> 100	> 100	> 100	> 100	> 100	> 100	> 100	> 100 µM									
CCC1(C)NN=c2s/c(=C/c3ccc(OC)cc3)c(=O)n2N1 (stereo not given)	> 100 µM	> 100	> 100	> 100	> 100	> 100	> 100	> 100	> 100 µM									
FC(F)(F)C1(Cl)C(c2ccccc2)=C1c1ccccc1	31.9 µM		28.1	29.1	25.6	26.6	29.3	> 100										
CC1[C@@H]2[C@@H](C=C3C4CCC5Cc6nc7c(nc6C[C@@]5(C)C4C[C@H](O)[C@]32CO)CC2CCC3C4=C[C@H]5O[C@@]6(O[C@@](C)(CO)C[C@@H]6O)C(C)[C@@]5(O)[C@]4(C)[C@@H](O)CC3[C@]2(C)C7)O[C@]12CCC(C)(C)O2 (stereo not given in full)	0.603 µM and > 3.65 µM	0.429		> 3.65	0.0639		> 3.65	0.0161	0.0159 µM and 0.0134 µM	0.0264	0.0228	< 0.000365	> 3.65	< 0.000365	> 3.65	0.000741		
NNC(=S)N/N=C(\CCCC(=O)NCCc1ccccc1)CC(=O)c1ccccc1	> 100 µM	> 100	> 100	> 100	> 100	> 100	> 100											
CN(C)c1ccc2c(c1)C(=O)N(OS(=O)(=O)c1ccc([N+](=O)[O-])cc1)C2=O	> 100 µM	30.5	62.7	61.2	38.8	28.1	56.4		> 100 µM									
COc1cccc(C2CC(c3cc(OC)c(OC)c(OC)c3)=NN2)c1 (stereo not given)	> 100 µM	42.1	38.3	39	> 100	34	> 100	41.4	> 100 µM	16.8	12.8	9.61	13.9	8.75	22.7	15.6	48.8	6.17
O=C(O)CN(c1ccccc1)S(=O)(=O)c1ccc(NC(=O)c2ccccc2)cc1	> 100 µM	> 100		> 100	> 100	> 100	> 100	> 100	> 100 µM									
C=CCC1OC(C)(C)Oc2ccc(OCOCCOC)cc21 (stereo not given)	> 100 µM		> 100	> 100	> 100	> 100	> 100	> 100	> 100 µM									
COC(=O)Cc1cc(OC)c(OC)cc1Br	> 100 µM	> 100	> 100	> 100	> 100		> 100	> 100	> 100 µM									
CCOc1ccc(NC(=O)CC2SC(=Nc3ccc(Cl)cc3)NC2=O)cc1 (stereo not given)	> 100 µM		> 100	> 100	> 100	> 100	> 100	> 100	> 100 µM									
COc1cc2c(cc1O)C=NCC2	> 100 µM	> 100	> 100	> 100	> 100		> 100	> 100	> 100 µM									
CCN(CC)CCNC(=O)c1ccccc1NC(=O)C(=O)Nc1ccccc1C(=O)NCCN(CC)CC	> 100 µM	> 100	> 100	> 100	33.9		> 100	74.4	> 100 µM									
